# Source: ChEMBL document CHEMBL3751701, “Class I and Class II Lanthipeptides Produced by Bacillus spp” (2015)
# How the values were obtained:
# Assay type in all cases: functional
# [1] = test system: Micrococcus luteus; test: Antibacterial activity against Micrococcus luteus […] 8166 by agar diffusion assay
# [2] = test system: Lactococcus lactis; test: Antibacterial activity against Lactococcus lactis MG1614 by agar diffusion assay
# [3] = test system: Kocuria rhizophila; test: Antibacterial activity against Micrococcus luteus ATCC 9341 by microdilution method
# [4] = test system: Enterococcus faecalis; test: Antibacterial activity against Enterococcus faecalis ATCC 51299 by microdilution method
# [5] = test system: Staphylococcus aureus; test: Antibacterial activity against methicillin-resistant Staphylococcus aureus ATCC 43300 by microdilution method
# [6] = test system: Enterococcus faecalis; test: Antibacterial activity against Enterococcus faecalis ATCC 29212 by microdilution method
# [7] = test system: Staphylococcus aureus; test: Antibacterial activity against Staphylococcus aureus ATCC 29213 by microdilution method
# [8] = test system: Kocuria rhizophila; test: Antibacterial activity against Micrococcus luteus ATCC 9341 after 24 hrs by microdilution method
# [9] = test system: Enterococcus faecalis; test: Antibacterial activity against Enterococcus faecalis ATCC 29212 after 24 hrs by microdilution method; details: ATCC 29212, 24 h
# [10] = test system: Listeria innocua; test: Antibacterial activity against Listeria innocua ATCC 33090 after 24 hrs by microdilution method; details: ATCC 33090, 24 h
# [11] = test system: Listeria monocytogenes; test: Antibacterial activity against Listeria monocytogenes LMG 21263 after 24 hrs by microdilution method; details: LMG 21263, 24 h
# [12] = test system: Bacillus spizizenii; test: Antibacterial activity against Bacillus subtilis ATCC 6633 after 24 hrs by microdilution method; details: ATCC 6633, 24 h
# [13] = test system: Bacillus cereus; test: Antibacterial activity against Bacillus cereus RFB125 after 24 hrs by microdilution method; details: RFB125, 24 h
# [14] = test system: Staphylococcus aureus; test: Antibacterial activity against Staphylococcus aureus ATCC 25923 after 24 hrs by microdilution method; details: ATCC 25923, 24 h
# [15] = test system: Enterococcus faecium; test: Antibacterial activity against Enterococcus faecium RFB128 after 24 hrs by microdilution method; details: RFB128, 24 h
# [16] = test system: Staphylococcus epidermidis; test: Antibacterial activity against Staphylococcus epidermidis ATCC 1228 after 24 hrs by microdilution method; details: ATCC 1228, 24 h
# [17] = test system: Priestia megaterium; test: Antibacterial activity against Bacillus megaterium RFB124 after 24 hrs by microdilution method; details: RFB124, 24 h
# [18] = test system: Staphylococcus aureus; test: Antibacterial activity against methicillin-resistant Staphylococcus aureus ATCC 43300 after 24 hrs by microdilution method; details: ATCC 43300, 24 h
# [19] = test system: Streptococcus agalactiae; test: Antibacterial activity against Streptococcus agalactiae RFB141 after 24 hrs by microdilution method; details: RFB141, 24 h
# [20] = test system: Listeria monocytogenes; test: Antibacterial activity against Listeria monocytogenes LMG 23905 after 24 hrs by microdilution method; details: LMG 23905, 24 h
# [21] = test system: Staphylococcus aureus; test: Antibacterial activity against Staphylococcus aureus RFB127 after 24 hrs by microdilution method; details: RFB127, 24 h
compound,measurement,setting,value
C=C(NC(=O)[C@H](NC(=O)[C@@H](CCCCN)NC(=O)[C@@H]1CSC(C)C2NC(=O)[C@@H](CC(C)C)NC(=O)C(NC(=O)[C@H](CCC(N)=O)NC(=O)[C@H](CC(C)C)NC(=O)[C@H](Cc3ccccc3)NC(=O)[C@@H]3CSC(C)C(NC(=O)[C@H](NC(=O)[C@@H]4CSC(C)C(NC(=O)[C@H]5CSC[C@H](NC(=O)[C@H](CCCCN)NC(=O)[C@@H](N)Cc6c[nH]c7ccccc67)C(=O)N[C@@H](CCC(=O)O)C(=O)NC(=C)C(=O)N[C@@H](CC(C)C)C(=O)N5)C(=O)N5CCC[C@@H]5C(=O)NCC(=O)N4)C(C)C)C(=O)NCC(=O)N[C@@H](C)C(=O)N[C@@H](CC(C)C)C(=O)N[C@@H](CCC(N)=O)C(=O)N/C(=C\C)C(=O)N3)C(C)SC[C@@H](NC2=O)C(=O)N[C@H](CC(N)=O)C(=O)N1)[C@H](C)CC)C(=O)N[C@@H](CCCCN)C(=O)O (stereo partly specified),MIC,[1],0.0151 µM
same,MIC,[2],0.301 µM
C=C(NC(=O)[C@H](NC(=O)[C@@H](CCCCN)NC(=O)[C@@H]1CSC(C)C2NC(=O)[C@@H]([C@H](C)CC)NC(=O)C(NC(=O)[C@@H](CCC(N)=O)NC(=O)[C@@H](CC(C)C)NC(=O)[C@@H](Cc3ccccc3)NC(=O)[C@@H]3CSC(C)C(NC(=O)[C@H](NC(=O)[C@@H]4CSC(C)C(NC(=O)[C@H]5CSC[C@@H](NC(=O)[C@@H](CCCCN)NC(=O)[C@H](N)Cc6c[nH]c7ccccc67)C(=O)N[C@H](CCC(=O)O)C(=O)NC(=C)C(=O)N[C@H](C(C)C)C(=O)N5)C(=O)N5CCC[C@@H]5C(=O)NCC(=O)N4)C(C)C)C(=O)NCC(=O)N[C@@H](CC(C)C)C(=O)N[C@@H](CC(C)C)C(=O)N[C@H](CCC(N)=O)C(=O)N/C(=C\C)C(=O)N3)C(C)SC[C@@H](NC2=O)C(=O)N[C@H](CC(N)=O)C(=O)N1)[C@H](C)CC)C(=O)N[C@@H](CCCCN)C(=O)O (stereo partly specified),MIC,[3],1.16 µM
same,MIC,[4],2.32 µM
same,MIC,[5],2.32 µM
same,MIC,[6],4.84 µM
same,MIC,[7],1.16 µM
C/C=C(\NC(=O)[C@H](Cc1cnc[nH]1)NC(=O)/C(=C/C)NC(=O)[C@@H]1CCCN1C(=O)[C@@H]1CSC[C@@H]2NC(=O)[C@H](CC(C)C)NC(=O)[C@@H](NC(=O)[C@H]3CSC[C@@H](NC(=O)[C@@H](NC(=O)CNC(=O)[C@H](CCCNC(=N)N)NC(=O)[C@H](CCC(N)=O)NC(=O)[C@H](CCC(=O)O)NC(=O)[C@H](C)N)[C@H](C)CC)C(=O)N[C@@H](CCC(N)=O)C(=O)NCC(=O)N[C@H](CC(N)=O)C(=O)N[C@H](CC(=O)O)C(=O)NCC(=O)N[C@H](CCCCN)C(=O)N[C@@H](CC(C)C)C(=O)N3)CSC[C@@H](NC(=O)[C@H](CCC(=O)O)NC(=O)[C@H](Cc3c[nH]c4ccccc34)NC2=O)C(=O)NCC(=O)N[C@@H](CC(C)C)C(=O)N1)C(=O)N[C@@H](CS)C(=O)N[C@H](Cc1c[nH]c2ccccc12)C(=O)N[C@H](CS)C(=O)O,MIC,[8],0.7 µM
same,MIC,[9],1.4 µM
same,MIC,[10],0.7 µM
same,MIC,[11],0.5 µM
same,MIC,[12],1.4 µM
same,MIC,[13],0.2 µM
same,MIC,[14],2.8 µM
same,MIC,[15],0.1 µM
same,MIC,[16],2.8 µM
same,MIC,[17],0.4 µM
same,MIC,[18],0.4 µM
same,MIC,[19],2.8 µM
same,MIC,[20],0.4 µM
same,MIC,[21],1.4 µM
